Test system: intrahepatic lymphocytes (IHL)
Assay: IFN-γ ELISPOT of intrahepatic lymphocytes stimulated with individual HBRV peptides
Assay type: cell-based, human
Description: We isolated intrahepatic lymphocytes (IHL) to increase the likelihood of finding HBRV reactive lymphocytes (FIG. 3). IHL were extracted from 5 PBC subjects and 4 LT controls, as described^58 (FIG. 4B). ELISPOT was employed to detect IFN-γ spot forming colonies (SFC) using 100,000 IHL per reaction. Individual peptides from HBRV GAG and Env (immunosuppressive domains (ISD) peptides removed) were used to perform 140 analyses per sample with […] as positive and no stimulus as negative control. We found 15 GAG and 21 Env peptides that produced SFC above background levels (FIG. 6A).
Cellular immune responses have been found using pooled peptides of the HBRV Gag (n=58) and Env (n=85) proteins. […] In order to characterize immunodominant HBRV epitopes, we screened intra-hepatic lymphocytes (IHL) from PBC subjects and control subjects for evidence of IFNg production. Methods: IHL were isolated from liver transplant recipients with PBC (n=5) and other hepatic disorders (n=4). IHL were individually stimulated with 15-mer peptides from HBRV Gag or Env proteins (n=144) or the characterized CD8+ reactive epitope to pyruvate dehydrogenase-E2 (PDH-E2). ELISpot was used to measure spot forming colonies (SFC) producing IFN-g.

TIYLGGSPDFHGFRNMSG [Env 17]
number of PBC subjects whose IHL were reactive (IFN-γ producing) (5 PBC subjects): 1
SFC level in the reactive PBC subject's IHL (FIG. 6A): < 50 SFC

From patent US11635434B2, “Betaretrovirus epitopes and related methods of use” (priority 2018, dated 2023)
